Source: patent US11213535B2, “Composition containing phytic acid, magnesium and polyphenols for the treatment or prevention of renal lithiasis” (UNIVERSITAT DE LES ILLES BALEARS, priority 2014, dated 2022)

Experiment: induction time of calcium oxalate crystallization in synthetic urine
Conditions: 200 mg/L calcium and 50 mg/L oxalate
Protocol: Thus, when there is neither magnesium nor phytate, the calcium oxalate takes 1 minute to crystallize. This time increases up to 10 minutes when […] magnesium is added and, in turn, it increases up to 44 minutes if, in addition to the 10 mg/L magnesium, 1 mg/L phytate is added.

## [Mg+2] [Mg, magnesium]
0 mg/L phytate, 25 mg/L Mg
  induction times of crystallization t: 1.5 min
0 mg/L phytate, 75 mg/L Mg
  induction times of crystallization t: 6 min
0 mg/L phytate, 100 mg/L Mg
  induction times of crystallization t: 10 min
100 mg/L magnesium, no phytate
  time calcium oxalate takes to crystallize (induction time): 10 min

## O=P(O)(O)O[C@H]1[C@H](OP(=O)(O)O)[C@@H](OP(=O)(O)O)[C@H](OP(=O)(O)O)[C@@H](OP(=O)(O)O)[C@H]1OP(=O)(O)O [phytate, myo-inositol-hexaphosphate]
0.5 mg/L phytate, 0 mg/L Mg
  induction times of crystallization t: 3 min
0.75 mg/L phytate, 0 mg/L Mg
  induction times of crystallization t: 4 min
1 mg/L phytate, 0 mg/L Mg
  induction times of crystallization t: 6.5 min
